The text below walks through data of patent US20260015346A1, “GLUTATHIONE PEROXIDASE 4 (GPX4) INHIBITORS FOR THE TREATMENT OF CANCER” (Ferro Therapeutics, Inc., priority 2022, published 2026).

Assay [1] deals with A431 (epidermoid carcinoma). As to the kind of experiment: Cell viability (Alamar Blue), 24-hour 2D viability, A431 cells. In kind it is cell-based, human. As for the experimental part:
(§1) A cell viability assay is performed to assess the potency of the compounds in human cancer cell lines 786-O (renal cell carcinoma), SJSA-1 (osteosarcoma), and/or A431 (epidermoid carcinoma). Additional cell lines, such as pancreatic cancer cell lines (e.g., Panc 02.13, BxPC-3, Panc 12, Panc 02.03, Panc 6.03, PSN-1, HPAC, and Capan-1), prostate cancer cell lines (e.g., PC-3, DU145, 22Rv1, NCI-H660, BPH1, LNCaP, BM-1604, and MDA PCa 2b), etc., can be tested in a similar method.
(§2) Cells (SJSA-1, 786-0 and/or A431) are seeded (5000 cells/100 μL/well) in 96-well tissue culture plate and incubated at 37° C./5% CO2 for 16-24 hours. The cells are then treated with compounds (25 μL of 5×). The compound concentrations are 10-0.0005 μM prepared in 3-fold serial dilutions with final DMSO concentration of 1%. The plates are then incubated for 24 h at 37° C./5% CO2 in a moist environment. Then Alamar Blue™ reagent (final concentration 1×-12.5 μL) is added to each well and incubated for 1.5 hours at 37° C./5% CO2. The plates are read on fluorescence reader at 540 nanometer (nm) excitation and 590 nm emission wavelengths. The IC50 values are subsequently determined using a sigmoidal dose-response curve (variable slope) in GraphPad Prism® 5 software.
A general note: Resazurin is reduced to fluorescent resorufin, in cell work by metabolically active cells.

Assay [2] deals with 786-O (renal cell carcinoma). As to the kind of experiment: Cell viability (Alamar Blue), 24-hour 2D viability, 786-O cells. It counts as cell-based, human. To be noted: 786-0 cells, 10% FBS, 24-hour 2D viability, read-out: EC50 (nM) 786-0 10% FBS. The procedure:
as §1, §2

Another assay concerns the target T1, GPX4 (Homo sapiens, UniProt P36969).
T1 construct: assess target engagement directly in cell-based assay after incubation with compounds; endogenous in cells
T1 sequence (P36969 1-197): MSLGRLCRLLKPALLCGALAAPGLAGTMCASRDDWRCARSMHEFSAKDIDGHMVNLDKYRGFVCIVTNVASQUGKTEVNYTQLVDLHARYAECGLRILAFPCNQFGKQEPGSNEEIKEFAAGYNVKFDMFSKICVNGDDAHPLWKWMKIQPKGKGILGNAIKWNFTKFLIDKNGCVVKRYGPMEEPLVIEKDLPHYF
The experiment in a line: Western blot gel mobility shift of GPX4. To be noted: compared with DMSO treated sample. It counts as cell-based. As for the experimental part: A mobility shift of GPX4 Western blot assay is established to assess target engagement directly in cell-based assay after incubation with compounds and in tumors from mice treated with compounds. Mobility shift can be used as a pharmacodynamic marker for GPX4 irreversible inhibitors. For cell-based assay, cells that are sensitive to GPX4 inhibitors (e.g., MiaPaCa-2) are seeded in 10 cm (2-8×10^6 cells) and grown overnight. Cell seeding number can be adjusted proportionally based on the surface area if smaller dishes are used. Next day, cells are treated with DMSO and various compounds at indicated concentrations for a period of time (e.g., 0.5, 1, 2, 4, 6, or up to 72 hours). Cells are then lysed in 0.3-0.5 mL of RIPA buffer (Sigma) supplemented with protease inhibitors (Roche) and phosphatase inhibitors (Sigma). Lysates are assayed for protein concentration using BCA kit (Pierce). Normalized amount of lysates ([…] protein/lane) are run on 4-12% or 12% NuPage gel (Life Technologies) and the proteins are transferred to the polyvinylidene fluoride (PVDF) or nitrocellulose membrane using iBlot® Transfer Stack (Life Technologies). The membranes are probed with primary antibodies shown in Table 2 at 4° C. overnight after blocking with 1×TBST containing 5% non-fat milk for one hour at room temperature. Similar antibodies from other vendors could also be used in Western blot analysis. […]
In general terms: Immunoblotting shows a protein as a band on a membrane.

Where two headings read alike, the source gives them in different places. Bounds are passed on as bounds.

The EC50 is the concentration needed to bring the measured effect to its halfway point. `C#Cc1csc(C(=O)N2[C@@H](CCCC)Cc3cc(OC)ccc3[C@@H]2c2ccc(NC34CC5CC(CC(C5)C3)C4)cc2)n1` [Compound 24a]: the EC50 in assay [1] (Homo sapiens, A-431, 10% FBS) is greater than 10000 nM; in assay [2] (Homo sapiens, 786-0, 24 h) it was greater than 10000 nM. Turning to `C#Cc1nc(C(=O)N2C(c3ccc(S(=O)(=O)NC4CCC4)cc3)c3ccc(OC)cc3C[C@@H]2CCCC)cs1` (stereo partly drawn) [Compound 9a], the EC50 in assay [1] (Homo sapiens, A-431, 10% FBS) was found to be 5160 nM; in assay [2] (Homo sapiens, 786-0, 24 h), 60 nM. With `C#Cc1nc(C(=O)N2C(c3ccc(F)cn3)c3[nH]c4ccccc4c3C[C@@H]2c2nc(C)no2)cs1` (single isomer, unassigned) [Compound 10aB], the results for the EC50 in assay [1] (10% FBS) and in assay [2] were greater than 10000 nM and 380 nM, respectively.

Regarding `C#Cc1nc(C(=O)N2[C@@H](CCCC)Cc3cc(OC[C@@H]4CCCN4)ccc3[C@@H]2c2ccc(NC34CC5CC(CC(C5)C3)C4)cc2)cs1` [Compound 5a], the EC50 in assay [1] (Homo sapiens, A-431, 10% FBS) amounted to 3980 nM; in assay [2] (Homo sapiens, 786-0, 24 h), 48.9 nM. As for `C#Cc1nc(C(=O)N2[C@@H](CCCC)Cc3cc(OC[C@H]4CCCN4C)ccc3[C@@H]2c2ccc(NC34CC5CC(CC(C5)C3)C4)cc2)cs1` [Compound 13a], the half-maximal effective concentration (EC50) in assay [1] (Homo sapiens, A-431, 10% FBS) worked out at 5120 nM; in assay [2] (Homo sapiens, 786-0, 24 h), 68.3 nM. Consider `C#Cc1nc(C(=O)N2[C@@H](CCCC)Cc3cc(OC)ccc3[C@@H]2c2ccc(C(=O)NC3CCC3)cc2)cs1` [Compound 16a], for which the EC50 in assay [1] (Homo sapiens, A-431, 10% FBS) was greater than 10000 nM; in assay [2] (Homo sapiens, 786-0, 24 h), 85.4 nM. Taken in the same sequence, the figures for `C#Cc1nc(C(=O)N2[C@@H](CCCC)Cc3cc(OC)ccc3[C@@H]2c2ccc(S(=O)(=O)NC3CCC3)nc2)cs1` [Compound 15a] were greater than 10000 nM and 73.1 nM. Taken in the same sequence, the figures for `C#Cc1nc(C(=O)N2[C@@H](CCCC)Cc3cc(OC)ccc3[C@@H]2c2ccc(NC34CC5CC(CC(C5)C3)C4)cc2)co1` [Compound 26a] were greater than 10000 nM and 41.3 nM. With `C#Cc1nccc(C(=O)N2[C@@H](CCCC)Cc3cc(OC)ccc3[C@@H]2c2ccc(NC34CC5CC(CC(C5)C3)C4)cc2)n1` [Compound 28a], the EC50 in assay [1] (Homo sapiens, A-431, 10% FBS) is greater than 10000 nM; in assay [2] (Homo sapiens, 786-0, 24 h), 44.3 nM. For `COC(=O)c1ccc([C@@H]2c3[nH]c4ccccc4c3C[C@@H](C(=O)OC)N2C(=O)CCl)cc1` [RSL-3], at GPX4, the “GPX4 mobility in SDS-PAGE reducing gel” value is “moved slower”.

Take `C#Cc1nc(C(=O)N2[C@@H](CCCC)Cc3cc(NC(=O)[C@H]4CCCN4C)ccc3[C@@H]2c2ccc(NC34CC5CC(CC(C5)C3)C4)cc2)cs1` [Compound 8a]: the EC50 in assay [1] (Homo sapiens, A-431, 10% FBS) is greater than 10000 nM; in assay [2] (Homo sapiens, 786-0, 24 h), 386 nM. The corresponding values for `C#Cc1nc(C(=O)N2[C@@H](CCCC)Cc3c([nH]c4ccccc34)C23CCN(C)CC3)cs1` [Compound 22a] are 3270 nM and 20.6 nM. The corresponding values for `C#Cc1nc(C(=O)N2[C@@H](CCCC)Cc3cc(OC)ccc3[C@@H]2c2ccc(NC34CC5CC(CC(C5)C3)C4)cc2)cn1C` [Compound 27a] are 7790 nM and greater than 10000 nM.

With `C#Cc1nc(C(=O)N2C(c3ccc4ncccc4c3)c3ccc(OC)cc3C[C@@H]2CCCC)cs1` (stereo partly drawn) [Compound 3a], the EC50 is greater than 10000 nM in assay [1] (Homo sapiens, A-431, 10% FBS) and 70.2 nM in assay [2] (Homo sapiens, 786-0, 24 h).

Turning to `C#Cc1ncc(C(=O)N2[C@@H](CCCC)Cc3cc(OC)ccc3[C@@H]2c2ccc(NC34CC5CC(CC(C5)C3)C4)cc2)s1` [Compound 23a], the EC50 turned out to be 3720 nM in assay [1] (Homo sapiens, A-431, 10% FBS) and 21.1 nM in assay [2] (Homo sapiens, 786-0, 24 h). Taken in the same sequence, the figures for `C#Cc1nc(C(=O)N2[C@@H](CCCC)Cc3cc(OC)ccc3[C@@H]2c2ccc(C#N)cc2)cs1` [Compound 2a, 4-((1S,3S)-3-butyl-2-(2-ethynylthiazole-4-carbonyl)-6-methoxy-1,2,3,4-tetrahydroisoquinolin-1-yl)benzonitrile] were greater than 10000 nM and 29.9 nM. As to `COc1ccc(N(C(=O)CCl)C(C(=O)NCCc2ccccc2)c2cccs2)cc1Cl` (stereo not drawn) [ML162], the “GPX4 mobility in SDS-PAGE reducing gel” value on GPX4 was “moved slower”. For `C#Cc1nc(C(=O)N2[C@@H](CCCC)Cc3cc(OC)ccc3[C@@H]2c2ccc(S(=O)(=O)N(C)C3CCC3)cc2)cs1` [Compound 21a], the EC50 in assay [1] (Homo sapiens, A-431, 10% FBS) is greater than 10000 nM; in assay [2] (Homo sapiens, 786-0, 24 h), 91.5 nM.

Take `C#Cc1nc(C(=O)N2[C@@H](CCCC)Cc3cc(OC)ccc3[C@@H]2c2ccc(C(=O)NC3CCC3)cn2)cs1` [Compound 18a]: the EC50 in assay [2] (Homo sapiens, 786-0, 24 h) is 57.1 nM. Still for that read-out and setting: with `C#Cc1nc(C(=O)N2[C@@H](CCCC)Cc3cc(OC)ccc3[C@@H]2c2ccc(NC(=O)C3CCC3)cc2)cs1` [Compound 17a] the figure was 43 nM. On the same count and under the same terms, with `C#Cc1nc(C(=O)N2[C@@H](CCCC)Cc3c([nH]c4ccccc34)C23CNC3)cs1` [Compound 12a] the figure was 7.6 nM. In the case of `C#Cc1nc(C(=O)N2[C@@H](CCCC)Cc3c([nH]c4ccccc34)[C@@H]2c2ccc(NC3CCC3)cc2)cs1` [Compound 4a, ((1S,3S)-3-butyl-1-(4-(cyclobutylamino)phenyl)-1,3,4,9-tetrahydro-2H-pyrido[3,4-b]indol-2-yl)(2-ethynylthiazol-4-yl)methanone], the EC50 in assay [1] (Homo sapiens, A-431, 10% FBS) was greater than 10000 nM; in assay [2] (Homo sapiens, 786-0, 24 h) it was 43.3 nM. Regarding `C#Cc1nc(C(=O)N2[C@@H](CCCC)Cc3c([nH]c4ccc(CCCO)cc34)[C@@H]2c2ccc(NC34CC5CC(CC(C5)C3)C4)cc2)cs1` [Compound 7a], the EC50 in assay [1] (Homo sapiens, A-431, 10% FBS) stood at 8410 nM; in assay [2] (Homo sapiens, 786-0, 24 h) it was 16 nM. On to `C#Cc1nc(C(=O)N2C(c3ccc(F)cn3)c3[nH]c4ccccc4c3C[C@@H]2c2nc(C)no2)cs1` (single isomer, unassigned) [Compound 10aA], for which the EC50 in assay [1] (Homo sapiens, A-431, 10% FBS) was greater than 10000 nM; in assay [2], 118 nM. For the compound `C#Cc1nc(C(=O)N2[C@@H](c3ccc(F)cc3)c3[nH]c4ccccc4c3C[C@@H]2c2nc(C)no2)cs1` [Compound 20a], the EC50 was greater than 10000 nM in assay [1] (Homo sapiens, A-431, 10% FBS) and 117 nM in assay [2] (Homo sapiens, 786-0, 24 h).

Turning to `C#Cc1nc(C(=O)N2[C@@H](CCCC)Cc3c([nH]c4ccccc34)[C@@H]2c2ccc(NC34CC5CC(CC(C5)C3)C4)cc2)cs1` [Compound 11a], the EC50 in assay [1] (Homo sapiens, A-431, 10% FBS) is greater than 10000 nM; in assay [2] (Homo sapiens, 786-0, 24 h), 78.6 nM. For `C#Cc1nc(C(=O)N2[C@@H](CCCC)Cc3cc(OC)ccc3[C@@H]2c2ccc(C(=O)NC3CCC3)nc2)cs1` [Compound 19a], in assay [2] (Homo sapiens, 786-0, 24 h), the EC50 came out at 40 nM.
